Measured values as given in paper PMC10999543, “Identification of kinase modulators as host-directed therapeutics against intracellular methicillin-resistant Staphylococcus aureus” (Frontiers in Cellular and Infection Microbiology, 2024).
Like-named read-outs stand apart in the source and are kept apart here.

Tests used:
HeLa cells = assay: Compound screen by flow cytometry: HeLa cell count as surrogate readout of cell viability (z-scoreHeLa); type: cell-based, human; conditions: for cell count rep 1 / z-scoreHeLa rep 1: replicate 1; for cell count rep 2 / z-scoreHeLa rep 2: replicate 2; for cell count rep 3 / z-scoreHeLa rep 3: replicate 3; for z-scoreHeLa mean: mean of 3 replicates
Outline: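 HeLa cells were infected with GFP-MRSA (mean MOI 6.8 ± 4.6) for 1 h, and extracellular bacteria were killed with 30 µg/ml gentamicin. Cells were then incubated overnight with kinase inhibitors in 5 µg/ml gentamicin, in triplicate against DMSO controls. Flow-cytometric cell count served as a viability surrogate, expressed as a plate z-score.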

intracellular MRSA = type: cell-based, Staphylococcus aureus; conditions: for %GFP+ rep 1 / z-scoreMRSA+ rep 1: replicate 1; for %GFP+ rep 2 / z-scoreMRSA+ rep 2: replicate 2; for %GFP+ rep 3 / z-scoreMRSA+ rep 3: replicate 3; for z-scoreMRSA+ mean: mean of 3 replicates
Outline: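 HeLa cells infected with GFP-MRSA (MOI ~6.8), gentamicin-cleared, then incubated overnight at 37°C with inhibitors plus 5 µg/ml gentamicin; DMSO as negative control, triplicates. Flow cytometry gave % GFP-positive cells and cell count (viability surrogate); hits by plate z-score (MRSA ≤ -2, HeLa count ≥ -3).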

[1] = PKIS compound screen raw data, HeLa cell count
[2] = PKIS compound screen, HeLa cell count
[3] = PKIS compound screen, Yes/No call on z-scoreHeLa
[4] = PKIS compound screen raw data, MRSA-infected HeLa cells
[5] = PKIS compound screen, MRSA-infected HeLa cells
[6] = PKIS compound screen, Yes/No call (effect without cell death)
[7] = PKIS compound screen, Yes/No call on z-scoreMRSA+
[8] = compound screen, HeLa cell count
[9] = Yes/No: effect without cell death
[10] = compound screen, MRSA-infected HeLa cells
[11] = PKIS compounds raw data, HeLa cell count
[12] = PKIS compounds raw data, MRSA-infected HeLa cells
[13] = PKIS compound screen, Yes/No call

Structure (SMILES) | cell count rep 1 (HeLa cells; [1]) | cell count rep 2 (HeLa cells; [1]) | cell count rep 3 (HeLa cells; [1]) | cell death (HeLa cells; Yes/No call from z-scoreHeLa) | z-scoreHeLa mean (HeLa cells; [8]) | z-scoreHeLa rep 1 (HeLa cells; [8]) | z-scoreHeLa rep 2 (HeLa cells; [8]) | z-scoreHeLa rep 3 (HeLa cells; [8]) | effect (intracellular MRSA; Yes/No call from z-scoreMRSA+) | hit (intracellular MRSA; [9]) | z-scoreMRSA+ mean (intracellular MRSA; [10]) | z-scoreMRSA+ rep 1 (intracellular MRSA; [10]) | z-scoreMRSA+ rep 2 (intracellular MRSA; [10]) | z-scoreMRSA+ rep 3 (intracellular MRSA; [10]) | cell count rep 1 (HeLa cells; [11]) | cell count rep 2 (HeLa cells; [11]) | cell count rep 3 (HeLa cells; [11]) | %GFP+ rep 1 (intracellular MRSA; [12]) | %GFP+ rep 2 (intracellular MRSA; [12]) | %GFP+ rep 3 (intracellular MRSA; [12]) | other results
c1ccc(-c2n[nH]cc2Nc2ccnc3ccccc23)nc1 [GW694077X] | 27159 | 28509 | 18866 |  |  |  |  |  |  |  |  |  |  |  |  |  |  |  |  |  | z-scoreHeLa mean (HeLa cells; [2]): 0.01; z-scoreHeLa rep 1 (HeLa cells; [2]): -0.51; z-scoreHeLa rep 2 (HeLa cells; [2]): 0.55; z-scoreHeLa rep 3 (HeLa cells; [2]): -0.0113; cell death (HeLa cells; [3]): No; %GFP+ rep 1 (intracellular MRSA; [4]): 15.2%; %GFP+ rep 2 (intracellular MRSA; [4]): 17.2%; %GFP+ rep 3 (intracellular MRSA; [4]): 15.3%; z-scoreMRSA+ mean (intracellular MRSA; [5]): -1.06; z-scoreMRSA+ rep 1 (intracellular MRSA; [5]): -0.96; z-scoreMRSA+ rep 2 (intracellular MRSA; [5]): -0.60; z-scoreMRSA+ rep 3 (intracellular MRSA; [5]): -1.62; hit (intracellular MRSA; [6]): No; effect (intracellular MRSA; [7]): No
COC(=O)Nc1nc2ccc(Oc3ccc(NC(=O)Nc4cc(C(F)(F)F)ccc4Cl)cc3)cc2[nH]1 [GW697465A] | 4644 | 3894 | 5423 | No | 0.00465 | 0.21 | -0.31 | 0.12 | No | No | -0.59 | -0.44 | -0.59 | -0.75 |  |  |  |  |  |  | %GFP+ rep 1 (intracellular MRSA; [4]): 23.4%; %GFP+ rep 2 (intracellular MRSA; [4]): 20.2%; %GFP+ rep 3 (intracellular MRSA; [4]): 19.7%
Cc1nnc(-c2ccc(C)c(-c3ccc(C(=O)Nc4ccc(NS(C)(=O)=O)cc4)cc3)c2)o1 [GW702865X] |  |  |  | No | -0.34 | -0.64 | -0.08 | -0.29 | No | No | 0.42 | 0.75 | 0.77 | -0.26 | 4074 | 4158 | 6358 | 15.5% | 15.8% | 15.0% | 
Fc1cccc(COc2ccc(Nc3ncnc4sc(-c5ccc[nH]5)cc34)cc2Cl)c1 [GW707818B] |  |  |  | No | 1.41 | 1.13 | 1.57 | 1.52 | No | No | 0.24 | -0.09 | -0.0758 | 0.87 | 5915 | 6344 | 7651 | 24.9% | 22.3% | 25.1% | 
Cc1nnc(-c2ccc(C)c(-c3ccc(C(=O)NCc4ccc(Cl)cc4)cc3)c2)o1 [GW708893X] |  |  |  |  |  |  |  |  |  |  |  |  |  |  | 5153 | 5899 | 7607 | 16.0% | 18.3% | 15.1% | cell death (HeLa cells; [13]): No; z-scoreHeLa mean (HeLa cells; PKIS compound screen): 0.63; z-scoreHeLa rep 1 (HeLa cells; PKIS compound screen): 0.34; z-scoreHeLa rep 2 (HeLa cells; PKIS compound screen): 1.23; z-scoreHeLa rep 3 (HeLa cells; PKIS compound screen): 0.31; effect (intracellular MRSA; [13]): No; hit (intracellular MRSA; [6]): No; z-scoreMRSA+ mean (intracellular MRSA; PKIS compound screen): 0.76; z-scoreMRSA+ rep 1 (intracellular MRSA; PKIS compound screen): 0.91; z-scoreMRSA+ rep 2 (intracellular MRSA; PKIS compound screen): 1.61; z-scoreMRSA+ rep 3 (intracellular MRSA; PKIS compound screen): -0.23
c1ccc(-c2n[nH]cc2-c2ccnc(-c3ccc(CNC4CCOCC4)cc3)c2)nc1 [GW709213X] | 27129 | 33773 | 22823 | No | 0.57 | -0.52 | 1.46 | 0.76 | No | No | 0.80 | 0.38 | 1.09 | 0.92 |  |  |  |  |  |  | %GFP+ rep 1 (intracellular MRSA; [4]): 20.2%; %GFP+ rep 2 (intracellular MRSA; [4]): 23.4%; %GFP+ rep 3 (intracellular MRSA; [4]): 24.6%
COc1ccc(-c2oc3ncnc(N)c3c2-c2ccc(NC(=O)Nc3cc(C(F)(F)F)ccc3F)cc2)cc1 [GW768505A] |  |  |  | No | -0.89 | -1.99 | -0.15 | -0.53 | No | No | -0.55 | -0.60 | -0.0319 | -1.03 | 2576 | 4064 | 5860 | 11.3% | 13.4% | 12.4% | 
Nc1ncnc2occ(-c3ccc(NC(=O)Nc4cc(C(F)(F)F)ccc4F)cc3)c12 [GW770249X] |  |  |  | No | -1.83 | -2.21 | -1.53 | -1.77 | No | No | -0.92 | -0.79 | -0.67 | -1.30 | 2336 | 2249 | 3259 | 10.7% | 11.5% | 11.5% | 
Cc1c2ccc(N(C)c3ccnc(Nc4cccc(S(N)(=O)=O)c4)n3)cc2nn1C [GW771127A] | 10020 | 29599 | 33795 |  |  |  |  |  |  |  |  |  |  |  |  |  |  |  |  |  | z-scoreHeLa mean (HeLa cells; [2]): -1.19; z-scoreHeLa rep 1 (HeLa cells; [2]): -1.53; z-scoreHeLa rep 2 (HeLa cells; [2]): -0.97; z-scoreHeLa rep 3 (HeLa cells; [2]): -1.07; cell death (HeLa cells; [3]): No; %GFP+ rep 1 (intracellular MRSA; [4]): 14.2%; %GFP+ rep 2 (intracellular MRSA; [4]): 13.8%; %GFP+ rep 3 (intracellular MRSA; [4]): 15.3%; z-scoreMRSA+ mean (intracellular MRSA; [5]): -1.32; z-scoreMRSA+ rep 1 (intracellular MRSA; [5]): -1.16; z-scoreMRSA+ rep 2 (intracellular MRSA; [5]): -1.42; z-scoreMRSA+ rep 3 (intracellular MRSA; [5]): -1.37; hit (intracellular MRSA; [6]): No; effect (intracellular MRSA; [7]): No
